Measured values published in patent US7439362B2, “Piperazinyl-or piperidinylamine-sulfamic acid amides as inhibitors of steroid sulfatase” (Novartis AG, priority 2002, dated 2008).

Legend:
[1] = biological target: T1, purified human steroid sulfatase (Homo sapiens, UniProt P08842); experiment: Assay of Human Steroid Sulfatase (4-methylumbelliferyl sulfate cleavage, fluorescence); assay type: biochemical; conditions: purified human placental enzyme; 4-methylumbelliferyl sulfate substrate; 37° C., 1 hour
T1 construct: Human placenta is obtained freshly after delivery; from tissue; host or cells: human placenta (microsomes, Triton X-100 extract, chromatographically purified)
T1 sequence (P08842 22-583): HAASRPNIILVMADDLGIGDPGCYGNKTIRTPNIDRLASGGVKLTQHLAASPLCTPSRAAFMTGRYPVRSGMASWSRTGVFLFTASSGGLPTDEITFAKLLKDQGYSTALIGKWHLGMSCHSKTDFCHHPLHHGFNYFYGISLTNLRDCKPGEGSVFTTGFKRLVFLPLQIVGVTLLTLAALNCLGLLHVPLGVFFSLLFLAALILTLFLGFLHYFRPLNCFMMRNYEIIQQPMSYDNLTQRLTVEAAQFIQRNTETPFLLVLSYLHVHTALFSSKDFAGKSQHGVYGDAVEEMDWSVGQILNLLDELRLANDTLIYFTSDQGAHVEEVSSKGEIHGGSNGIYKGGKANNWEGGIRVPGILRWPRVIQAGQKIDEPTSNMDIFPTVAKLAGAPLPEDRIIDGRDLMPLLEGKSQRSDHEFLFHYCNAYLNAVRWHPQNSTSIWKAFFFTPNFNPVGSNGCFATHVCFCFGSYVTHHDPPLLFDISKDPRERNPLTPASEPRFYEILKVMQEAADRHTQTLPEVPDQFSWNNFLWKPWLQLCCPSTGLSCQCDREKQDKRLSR
Description: Human placenta is obtained freshly after delivery and stripped of membranes and connective tissues. For storage, the material is frozen at −70° C. After thawing, all further steps are carried out at 4° C., while pH values are adjusted at 20° C. 400 g of the tissue is homogenized in 1.2 l of buffer A (50 mM Tris-HCl, pH 7.4, 0.25 M sucrose). The homogenate obtained is centrifuged at 10,000×g for 45 minutes. The supernatant is set aside and the pellet obtained is re-homogenized in 500 ml of buffer A. After centrifugation, the two supernatants obtained are combined and subjected to ultracentrifugation (100,000×g, 1 hour). The pellet obtained is resuspended in buffer A and centrifugation is repeated. The pellet obtained is suspended in 50 ml of 50 mM Tris-HCl, pH 7.4 and stored at −20° C. until further work-up. […]
It is known that purified human steroid sulfatase not only is capable to cleave steroid sulfates, but also readily cleaves aryl sulfates such as 4-methylumbelliferyl sulfate which is used in the present test system as an activity indicator. […]
Plates are incubated at 37° C. for 1 hour. […] Fluorescence intensity is determined in a Titertek Fluoroskan. […]
[formula] wherein I100 is the intensity observed in the absence of inhibitor and s is a slope factor. Estrone sulfamate is used as a reference compound and its IC50 value is determined in parallel to all other test compounds. […]

[2] = biological target: T2, steroid sulfatase in human skin homogenate (Homo sapiens, UniProt P08842); experiment: Assay Using Human Skin Homogenate ([3H]DHEAS cleavage); assay type: biochemical; conditions: human cadaver skin homogenate; DHEAS substrate; 18 hrs at 37° C.
T2 construct: Frozen specimens of human cadaver skin; from tissue; host or cells: human cadaver skin, minced and suspended in Triton X-100 buffer
T2 sequence (P08842 22-583): T1 sequence (P08842 22-583)
Description: Frozen specimens of human cadaver skin (about 100 mg per sample) are minced Into small pieces (about 1×1 mm) using sharp scissors. The pieces obtained are suspended in ten volumes (w/w) of buffer (20 mM Tris-HCl, pH 7.5), containing 0.1% Triton X-100. Test compounds (e.g. compounds of the present invention) are added at graded concentrations from stock solutions In ethanol or DMSO. Second, DHEAS as the substrate is added (1 μC/ml [^3H]DHEAS, specific activity: about 60 Ci/mmol, and 20 μM unlabeled DHEAS).
Samples are incubated for 18 hrs at 37° C. At the end of the Incubation period, 50 μl of 1 M Tris, pH 10.4 and 3 ml of toluene are added. A 1-ml aliquot of the organic phase is removed and subjected to liquid scintillation counting. The determined dpm-values in the aliquots are converted to nmol of DHEA cleaved per g of skin per hour.

| IC50 [2] [nM] | melting point [°C] | SMILES | IC50 [1] [nM] |
| --- | --- | --- | --- |
|  |  | CC12CCC3c4ccc(OS(N)(=O)=O)cc4CCC3C1CCC2=O (stereo not drawn) [estrone sulfamate] | ~60 |
| 30 to 270 | 192 to 195 | NC(=O)c1ccc(C(F)(F)F)cc1N1CCC(NS(=O)(=O)NC(=O)c2cc(C(F)(F)F)cc(C(F)(F)F)c2)CC1 [Example 1, N-[[4-[1-(2-Aminocarbonyl-5-trifluoromethyl-phenyl)]-piperidinyl]-amino]-sulfonyl-3,5-bis-trifluoromethyl-benzamide] |  |
